In patent US9399637B2, “Substituted heteroaryl compounds and methods of use” (Calitor Sciences, LLC, priority 2014, dated 2016):

Tests used:
[1] = Compound stability in human liver microsomes; assay type: in vitro ADME; details: pH 7.4; for half-life at 5 μM: human liver microsomes 0.5 mg protein/mL, compound 5 μM, NADPH, 37° C., read-out: Human T1/2; for CLint scaled at 5 μM: human liver microsomes, in vivo CLint extrapolated
Procedure: (§1) Human or rat liver microsomes incubations were conducted in duplicate in polypropylene tubes. The typical incubation mixtures consisted of human or rat liver microsomes (0.5 mg protein/mL), compounds of interest (5 μM) and NADPH (1.0 mM) in a total volume of 200 μL potassium phosphate buffer (PBS, 100 mM, pH 7.4). Compounds were dissolved in DMSO and diluted with PBS such that the final concentration of DMSO was 0.05%. The enzymatic reactions were commenced with the addition of […] after a 3-min preincubation and incubated in a water bath open to the air at 37° C. Reactions were terminated at various time points (0, 5, 10, 15, 30, 60 min) by adding equal volume of ice-cold acetonitrile. The samples were stored at […] until LC/MS/MS assays.
(§2) The concentrations of compounds in the incubation mixtures of human or rat liver microsomes were determined by a LC/MS/MS method. The ranges of the linearity in the concentration range were determined for each tested compounds.
(§3) A parallel incubation was performed using denatured microsomes as the negative control, and reactions were terminated at various time points (0, 15, 60 min) after incubation at 37° C.
(§4) Dextromethorphan (70 μM) was selected as the positive control, and reactions were terminated at various time points (0, 5, 10, 15, 30, 60 min) after incubation at 37° C. Both positive and negative control samples were included in each assay to ensure the integrity of the microsomal incubation system.
(§5) The concentrations of compounds in human or rat liver microsome incubations were plotted as a percentage of the relevant zero time point control for each reaction. The in vivo CLint were extrapolated (ref.: Naritomi, Y.; Terashita, S.; Kimura, S.; Suzuki, A.; Kagayama, A.; and Sugiyama, Y.; Prediction of human hepatic clearance from in vivo animal experiments and in vitro metabolic studies with liver microsomes from animals and humans. Drug Metab. Dispos., 2001, 29: 1316-1324).

[2] = Compound stability in rat liver microsomes; assay type: in vitro ADME; details: pH 7.4; for half-life at 5 μM: rat liver microsomes 0.5 mg protein/mL, compound 5 μM, NADPH, 37° C., read-out: Rat T1/2; for CLint scaled at 5 μM: rat liver microsomes, in vivo CLint extrapolated
Procedure: as §1, §2, §3, §4, §5

JAK2 (h) = target: T1, JAK2 (h) (Homo sapiens, UniProt O60674); experiment: JAK2 kinase assay; assay type: biochemical
T1 construct: purchased Millipore UK Ltd (assays run there as a service)
T1 sequence (O60674 whole entry): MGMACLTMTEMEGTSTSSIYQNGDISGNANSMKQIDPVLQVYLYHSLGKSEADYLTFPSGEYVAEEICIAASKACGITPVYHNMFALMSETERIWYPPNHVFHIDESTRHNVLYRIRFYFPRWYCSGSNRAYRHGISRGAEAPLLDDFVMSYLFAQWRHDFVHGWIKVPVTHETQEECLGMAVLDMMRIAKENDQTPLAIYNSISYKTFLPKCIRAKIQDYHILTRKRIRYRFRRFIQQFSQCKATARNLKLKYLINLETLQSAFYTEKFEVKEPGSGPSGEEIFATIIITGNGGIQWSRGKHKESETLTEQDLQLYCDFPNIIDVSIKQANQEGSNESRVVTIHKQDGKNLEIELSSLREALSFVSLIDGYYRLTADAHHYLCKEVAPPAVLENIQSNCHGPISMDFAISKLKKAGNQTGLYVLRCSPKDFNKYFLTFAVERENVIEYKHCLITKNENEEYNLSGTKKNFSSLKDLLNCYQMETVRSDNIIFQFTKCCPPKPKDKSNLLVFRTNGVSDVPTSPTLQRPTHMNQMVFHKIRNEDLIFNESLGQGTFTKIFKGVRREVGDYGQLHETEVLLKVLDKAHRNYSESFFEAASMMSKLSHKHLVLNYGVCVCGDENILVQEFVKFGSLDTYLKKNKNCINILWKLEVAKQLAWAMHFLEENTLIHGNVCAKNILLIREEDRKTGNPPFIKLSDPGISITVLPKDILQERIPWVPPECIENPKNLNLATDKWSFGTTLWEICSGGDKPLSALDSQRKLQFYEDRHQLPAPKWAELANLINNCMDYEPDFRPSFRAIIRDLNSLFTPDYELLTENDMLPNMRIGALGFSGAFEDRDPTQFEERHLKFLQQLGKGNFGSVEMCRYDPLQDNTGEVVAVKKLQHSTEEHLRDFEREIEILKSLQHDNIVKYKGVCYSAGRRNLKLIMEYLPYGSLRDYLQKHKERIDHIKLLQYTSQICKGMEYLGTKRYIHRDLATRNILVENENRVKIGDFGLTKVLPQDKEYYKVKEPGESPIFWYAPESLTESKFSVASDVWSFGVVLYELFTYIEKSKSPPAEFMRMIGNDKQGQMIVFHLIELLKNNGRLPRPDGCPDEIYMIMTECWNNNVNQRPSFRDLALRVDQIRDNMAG
Procedure: (§6) Kinase assays can be performed by measurement of incorporation of γ-^33P ATP into immobilized myelin basic protein (MBP). High binding white 384 well plates (Greiner) are coated with MBP (Sigma #M-1891) by incubation of 60 μL/well of 20 μg/mL MBP in Tris-buffered saline (TBS; 50 mM Tris pH 8.0, 138 mM NaCl, 2.7 mM KCl) for 24 h at 4° C. Plates are washed 3× with 100 μL TBS. Kinase reactions are carried out in a total volume of 34 μL in kinase buffer (5 mM Hepes pH 7.6, 15 mM NaCl, 0.01% bovine gamma globulin (Sigma #I-5506), 10 mM MgCl2, 1 mM DTT, 0.02% TritonX-100). Compound dilutions are performed in DMSO and added to assay wells to a final DMSO concentration of 1%. Each data point is measured in duplicate, and at least two duplicate assays are performed for each individual compound determination. Enzyme is added to final concentrations of 10 nM or 20 nM, for example. A mixture of unlabeled ATP and γ-^33P ATP is added to start the reaction (2×10^6 cpm of γ-^33P ATP per well (3000 Ci/mmole) and 10 μM unlabeled ATP, typically. The reactions are carried out for 1 h at room temperature with shaking Plates are washed 7× with TBS, followed by the addition of 50 μL/well scintillation fluid (Wallac). Plates are read using a Wallac Trilux counter. This is only one format of such assays; various other formats are possible, as known to one skilled in the art.
The above assay procedure can be used to determine the IC50 for inhibition and/or the inhibition constant, Ki. The IC50 is defined as the concentration of compound required to reduce the enzyme activity by 50% under the condition of the assay. The IC50 value is estimated by preparing a 10 point curve using a ½ log dilution series (for example, a typical curve may be prepared using the following compound concentrations: 3 μM, 1 μM, 0.3 μM, 0.1 μM, 0.03 μM, 0.01 μM, 0.003 μM, 0.001 μM, 0.0003 μM and 0 μM).
(specific activity approx. 500 cpm/pmol, concentration as required).
The kinase assays described herein were performed at Millipore UK Ltd, Dundee Technology Park, Dundee DD2 1SW, UK.

FLT3 (h) = target: T2, FLT3 (h) (Homo sapiens, UniProt P36888); experiment: FLT3 kinase assay; assay type: biochemical
T2 construct: purchased Millipore UK Ltd (assays run there as a service)
T2 sequence (P36888 27-993): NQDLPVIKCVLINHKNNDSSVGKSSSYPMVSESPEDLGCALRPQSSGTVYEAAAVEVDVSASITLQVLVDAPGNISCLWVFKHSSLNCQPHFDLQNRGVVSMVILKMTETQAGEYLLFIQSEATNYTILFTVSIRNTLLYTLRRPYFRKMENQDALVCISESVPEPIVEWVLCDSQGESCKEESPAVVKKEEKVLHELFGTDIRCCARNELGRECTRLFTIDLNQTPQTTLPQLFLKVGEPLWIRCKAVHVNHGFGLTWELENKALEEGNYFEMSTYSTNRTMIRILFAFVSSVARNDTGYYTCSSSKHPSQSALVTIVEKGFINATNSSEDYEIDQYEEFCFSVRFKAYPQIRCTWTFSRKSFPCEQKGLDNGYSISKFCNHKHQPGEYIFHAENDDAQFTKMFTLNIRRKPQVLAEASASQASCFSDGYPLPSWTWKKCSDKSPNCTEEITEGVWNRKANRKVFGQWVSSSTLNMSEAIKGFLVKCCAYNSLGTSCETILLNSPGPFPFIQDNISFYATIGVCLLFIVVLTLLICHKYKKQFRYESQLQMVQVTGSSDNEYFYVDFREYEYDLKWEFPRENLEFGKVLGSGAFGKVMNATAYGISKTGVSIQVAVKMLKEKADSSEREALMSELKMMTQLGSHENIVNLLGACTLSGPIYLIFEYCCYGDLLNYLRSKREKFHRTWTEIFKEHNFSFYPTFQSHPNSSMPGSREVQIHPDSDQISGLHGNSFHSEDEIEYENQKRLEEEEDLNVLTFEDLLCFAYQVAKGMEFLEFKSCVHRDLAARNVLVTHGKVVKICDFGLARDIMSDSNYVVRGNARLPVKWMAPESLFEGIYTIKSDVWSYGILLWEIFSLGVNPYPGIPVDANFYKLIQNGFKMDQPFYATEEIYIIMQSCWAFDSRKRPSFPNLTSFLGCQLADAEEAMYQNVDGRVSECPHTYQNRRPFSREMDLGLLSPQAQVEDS
Procedure: as §6, with “art. […]” for “art.”

SMILES | half-life at 5 μM [1] | CLint scaled at 5 μM [1] | half-life at 5 μM [2] | CLint scaled at 5 μM [2] | IC50 (JAK2 (h)) | IC50 (FLT3 (h))
Cc1c2ccc(Nc3ncc(Cl)c(NC4CC5CN(C(=O)CC#N)CC5C4)n3)cc2nn1C (stereo not drawn) [Ex. 4, 3-(5-((5-chloro-2-((2,3-dimethyl-2H-indazol-6-yl)amino)pyrimidin-4-yl)amino)hexahydrocyclopenta[c]pyrrol-2(1H)-yl)-3-oxopropanenitrile] | 14.3 min | 122 mL/min/kg | 25.3 min | 98.3 mL/min/kg | 9 nM | 545 nM
CC(=O)N1CCC2(CCC(Nc3nc(Nc4ccc5c(C)n(C)nc5c4)ncc3Cl)CC2)CC1 [Ex. 7, 1-(9-((5-chloro-2-((2,3-dimethyl-2H-indazol-6-yl)amino)pyrimidin-4-yl)amino)-3-azaspiro[5.5]undecan-3-yl)ethanone] | 42.9 min | 40.5 mL/min/kg | 29.3 min | 84.8 mL/min/kg | 2 nM | 3 nM
